Reference: ChEMBL document CHEMBL1201862, “PubChem BioAssay data set” (2004)
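Exposure lasted 48 hours, with cells grown in 96-well plates and compounds tested at five concentrations. The concentration for 50% growth inhibition is given as GI50.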 The source made the active and inactive calls. Rule as the data show it: active = GI50 up to about 1.1 µM and inactive = higher.

Tests used:
Assay in all cases: inhibition of tumour cell growth, NCI panel, 48 h
T47D = system: T47D
DMS-114 = system: DMS-114
DMS-273 = system: DMS-273
LXFL 529 = system: LXFL 529
M19-MEL = system: M19-MEL
SNB-78 = system: SNB-78
XF498 = system: XF498
RXF 631 = system: RXF 631
HOP-18 = system: HOP-18

## Cn1c2ccccc2n2c(=O)c(-c3ccc(O)cc3)nnc12
T47D
  GI50: > 100 µM (inactive)

## O=C1c2ccccc2-c2nnc(-c3ccc(Cl)cc3)cc21
T47D
  GI50: > 10 µM (inactive)

## O=C1c2ccccc2C(=O)c2c(Nc3cc4c5c(ccc6c7ccc8c9c(cc(Nc%10cccc%11c%10C(=O)c%10ccccc%10C%11=O)c(c3c56)c97)-c3ccccc3C8=O)C(=O)c3ccccc3-4)cccc21
T47D
  GI50: > 100 µM (inactive)

## CCSC(=O)N1c2ccc(OC)cc2C=CC1C#N (stereo unspecified)
DMS-114
  GI50: < 0.01 µM (active)
DMS-273
  GI50: < 0.01 µM (active)
LXFL 529
  GI50: < 0.01 µM (active)
M19-MEL
  GI50: < 0.01 µM (active)
SNB-78
  GI50: 51.8 µM (inactive)
T47D
  GI50: 228 µM (inactive)
XF498
  GI50: < 0.01 µM (active)

## CN(C)c1ccc(C=c2c3ccccc3n3c2c2ccccc2[n+]3C)cc1
T47D
  GI50: 0.248 µM (active)

## CC1CCCCNC1=S (stereo unspecified)
T47D
  GI50: > 10 µM (inactive)

## CCN1C(=O)N2C(OC)c3ccccc3C(Br)C2(OC)C1=O (stereo unspecified)
DMS-114
  GI50: > 100 µM (inactive)
DMS-273
  GI50: > 100 µM (inactive)
LXFL 529
  GI50: > 100 µM (inactive)
M19-MEL
  GI50: > 100 µM (inactive)
RXF 631
  GI50: > 100 µM (inactive)

## CCOC(=O)O/C(=C\c1ccc(OC)cc1)c1c(OC(=O)OCC)n(C(=O)OCC)c2ccccc12
T47D
  GI50: 57.7 µM (inactive)

## Cn1c2ccccc2n2c(=O)c3cc([N+](=O)[O-])ccc3c(C#N)c12
T47D
  GI50: > 100 µM (inactive)

## C1CN(c2nc3c(nnc4nc(N5CCOCC5)sc43)s2)CCO1
T47D
  GI50: 23.7 µM (inactive)

## O=C(Nc1ccccc1-c1n[nH]c(S)nc1=O)C(F)(F)F
DMS-114
  GI50: > 100 µM (inactive)
DMS-273
  GI50: > 100 µM (inactive)
LXFL 529
  GI50: > 100 µM (inactive)
M19-MEL
  GI50: > 100 µM (inactive)
SNB-78
  GI50: > 100 µM (inactive)
XF498
  GI50: > 100 µM (inactive)

## CC(=O)NC1C(OCc2ccccc2)OC(CO)C(O)C1OC(C)C(=O)N[C@@H](C)C(=O)N[C@H](CCC(=O)OCCNc1c2ccccc2nc2cccc([N+](=O)[O-])c12)C(N)=O (stereo partly specified)
DMS-273
  GI50: 0.0016 µM (active)
HOP-18
  GI50: 0.000354 µM (active)
LXFL 529
  GI50: 0.000622 µM (active)
SNB-78
  GI50: 0.0252 µM (active)

## O=C1/C(=C/c2cccc([N+](=O)[O-])c2)N=C(c2ccccc2)N1c1nc2ccc(Sc3ccccc3)cc2[nH]1
T47D
  GI50: 47.2 µM (inactive)

## NC(CCCCNC(=O)C(Cc1ccccc1)NC(=O)OCc1ccccc1)C(=O)NC(CCCCNC(=O)C(Cc1ccccc1)NC(=O)OCc1ccccc1)C(=O)NC(CCCCNC(=O)C(Cc1ccccc1)NC(=O)OCc1ccccc1)C(=O)NC(CCCCNC(=O)C(Cc1ccccc1)NC(=O)OCc1ccccc1)C(=O)NC(CCCCNC(=O)C(Cc1ccccc1)NC(=O)OCc1ccccc1)C(=O)NC(CCCCNC(=O)C(Cc1ccccc1)NC(=O)OCc1ccccc1)C(=O)O (stereo unspecified)
T47D
  GI50: > 100 µM (inactive)

## O=P(O)(Cc1ccccc1)c1ccccc1-c1ccccc1
T47D
  GI50: > 100 µM (inactive)

## COc1ccc(OC)c(C2CCc3nc4nc(N)nc(N)c4cc3C2)c1 (stereo unspecified)
T47D
  GI50: 1.94 µM (inactive)

## O=C1/C(=C\c2ccccc2)c2ccccc2N1Cc1ccccc1
T47D
  GI50: 6.61 µM (inactive)

## [N-]=[N+]=NC[C@H]1OCO[C@H](CN=[N+]=[N-])[C@H]2OCCOCCOc3ccccc3OCCOCCO[C@@H]21
T47D
  GI50: > 100 µM (inactive)

## Cc1ccc(NC(=O)SCCC(=O)O)cc1
DMS-114
  GI50: > 100 µM (inactive)
DMS-273
  GI50: > 100 µM (inactive)
LXFL 529
  GI50: > 100 µM (inactive)
RXF 631
  GI50: > 100 µM (inactive)
SNB-78
  GI50: > 100 µM (inactive)

## Oc1ccccc1/C=N/c1ccc(-c2nc3ccccc3s2)cc1
T47D
  GI50: 10.4 µM (inactive)

## C=C1CC2CCCC12C=O (stereo unspecified)
T47D
  GI50: > 10 µM (inactive)

## O=c1[nH]c(-c2ccc([N+](=O)[O-])cc2)nc2ccc(Cl)cc12
DMS-273
  GI50: > 100 µM (inactive)
LXFL 529
  GI50: 44.2 µM (inactive)
M19-MEL
  GI50: > 100 µM (inactive)
SNB-78
  GI50: > 100 µM (inactive)

## CSc1nc2c(ncn2C2OC(CO)C(O)C(O)C2O)c(=O)n1C (stereo unspecified)
DMS-114
  GI50: > 100 µM (inactive)
DMS-273
  GI50: > 100 µM (inactive)
HOP-18
  GI50: > 88.9 µM (inactive)
M19-MEL
  GI50: > 100 µM (inactive)
SNB-78
  GI50: > 100 µM (inactive)
XF498
  GI50: > 100 µM (inactive)

## COC(OC)(c1ccccc1)C(Br)Br
T47D
  GI50: 39.7 µM (inactive)

## CC1(C)OC2C(CO)OC(N/C(=N/C#N)Oc3ccccc3)C2O1 (stereo unspecified)
DMS-114
  GI50: > 100 µM (inactive)
DMS-273
  GI50: > 100 µM (inactive)
LXFL 529
  GI50: > 100 µM (inactive)
M19-MEL
  GI50: > 100 µM (inactive)
SNB-78
  GI50: > 100 µM (inactive)
XF498
  GI50: > 100 µM (inactive)

## O=C1CS(=O)(=O)C(c2cccc(Oc3ccccc3)c2)N1c1ccccc1 (stereo unspecified)
T47D
  GI50: 15.3 µM (inactive)

## Brc1ccc2c([C@H]3CN[C@@H](c4c[nH]c5cc(Br)ccc45)CN3)c[nH]c2c1
T47D
  GI50: 5.47 µM (inactive)

## COc1ccc2c(c1)C(=O)CC1c3cnccc3C(=O)N21 (stereo unspecified)
T47D
  GI50: > 100 µM (inactive)

## NS(=O)(=O)c1ccc(NNc2c3ccccc3nc3c(C(=O)Nc4ccc(S(=O)(=O)Nc5ncccn5)cc4)cccc23)cc1
T47D
  GI50: > 25 µM (inactive)

## Cn1c(=O)c2ccccc2c2nc3ccccc3nc21
DMS-114
  GI50: > 100 µM (inactive)
DMS-273
  GI50: > 100 µM (inactive)
LXFL 529
  GI50: > 100 µM (inactive)
M19-MEL
  GI50: > 100 µM (inactive)
SNB-78
  GI50: 68.7 µM (inactive)

## C/C(CC(=O)Nc1cc(Cl)c(Cl)cc1Cl)=N\NC(N)=O
DMS-114
  GI50: > 100 µM (inactive)
DMS-273
  GI50: > 100 µM (inactive)
LXFL 529
  GI50: > 100 µM (inactive)
M19-MEL
  GI50: > 100 µM (inactive)
RXF 631
  GI50: > 100 µM (inactive)
XF498
  GI50: > 100 µM (inactive)

## O=c1n(C2CCCCC2)c(=C(Cl)Cl)c(=C(Cl)Cl)n1C1CCCCC1
DMS-114
  GI50: 53.1 µM (inactive)
DMS-273
  GI50: > 100 µM (inactive)
HOP-18
  GI50: > 100 µM (inactive)
M19-MEL
  GI50: > 100 µM (inactive)
SNB-78
  GI50: 85.1 µM (inactive)
XF498
  GI50: > 100 µM (inactive)
